“And” between values parts separate entries of the source, which are not always exact repeats. Identical values can stand only once. Like-named read-outs stand apart in the source and are kept apart here.
Legend:
human AR [1] = target: T1, human AR (Homo sapiens, UniProt P10275); experiment: cell-based; set-up: species or system AR2 cells (HepG2-AR2); NanoLuc complementation AR homodimerization, antagonist mode, loss of agonist-induced luminescence, AC50 by Hill fit; settings: hill_ga, antagonist mode, 10 nM agonist stimulus, 18 h, no CYP expressed
T1 sequence (P10275 1-920) 1: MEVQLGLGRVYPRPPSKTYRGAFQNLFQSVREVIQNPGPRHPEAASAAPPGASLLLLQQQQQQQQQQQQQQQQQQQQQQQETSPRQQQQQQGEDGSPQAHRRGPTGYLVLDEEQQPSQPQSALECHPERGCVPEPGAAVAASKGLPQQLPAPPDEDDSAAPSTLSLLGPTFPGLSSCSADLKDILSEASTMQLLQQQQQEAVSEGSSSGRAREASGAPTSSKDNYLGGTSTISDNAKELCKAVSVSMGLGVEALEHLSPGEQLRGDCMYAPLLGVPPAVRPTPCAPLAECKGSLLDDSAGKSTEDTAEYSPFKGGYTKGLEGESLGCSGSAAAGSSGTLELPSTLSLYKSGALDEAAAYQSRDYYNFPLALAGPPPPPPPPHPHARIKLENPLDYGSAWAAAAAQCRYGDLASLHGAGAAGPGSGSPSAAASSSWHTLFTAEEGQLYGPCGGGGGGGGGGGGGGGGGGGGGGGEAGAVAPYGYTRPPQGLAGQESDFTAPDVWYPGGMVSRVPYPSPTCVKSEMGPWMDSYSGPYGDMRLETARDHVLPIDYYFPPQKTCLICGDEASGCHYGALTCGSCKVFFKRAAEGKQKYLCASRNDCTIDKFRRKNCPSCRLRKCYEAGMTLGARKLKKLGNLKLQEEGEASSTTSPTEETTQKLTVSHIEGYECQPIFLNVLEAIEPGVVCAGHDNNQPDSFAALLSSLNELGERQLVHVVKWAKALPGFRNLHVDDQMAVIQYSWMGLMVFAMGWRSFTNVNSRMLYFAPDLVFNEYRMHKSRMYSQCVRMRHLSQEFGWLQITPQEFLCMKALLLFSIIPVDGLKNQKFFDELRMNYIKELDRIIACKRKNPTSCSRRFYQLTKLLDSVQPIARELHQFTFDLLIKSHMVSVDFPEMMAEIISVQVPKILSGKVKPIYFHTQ
T1 sequence (P10275 1-920) 2: T1 sequence (P10275 1-920) 1

AR = system: AR; set-up: method as in Kleinstreuer et al., 2017; settings: 2017, cited from earlier work; for Agonist reference: AR agonist reference class ref Kleinstreuer et al.; for Antagonist reference: AR antagonist reference class ref Kleinstreuer et al.
AR2 cells (HepG2-AR2) [2] = experiment: Alamar Blue (resazurin) post hoc cell viability / cytotoxicity assay in AR2 cells; settings: spid Viability, sheet antagonist_fits; for hill_tp (Hill model top): 0 where win_model is Constant
Method: (§1) For antagonist mode and cytotoxicity data, well-level normalized response (resp) was calculated as: resp=100 * RLU−bval/pval−bval where pval is the median RLU value of the MEC positive control wells (minimum four wells).

human AR [3] = target: T1, human AR; experiment: AR2 assay, antagonist mode: disruption of R1881 (10 nM)-induced AR homodimerization in HepG2-AR2 cells; type: cell-based
[4] = system: human AR (LBD and AF2 domains) and the RID of human SRC2; set-up: method as in U.S. EPA, 2002b; settings: cited from earlier work
human AR [5] = target: T1, human AR; experiment: AR2 assay, agonist mode: ligand-dependent AR homodimerization (NanoBiT luciferase complementation) in stable HepG2-AR2 cells; type: cell-based; set-up: Emax: dose or concentration left out as unconfirmed;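 on hill tp: Log2 fold change of luminescence over DMSO vehicle wells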;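 on max med: Log2 fold change of luminescence over DMSO vehicle wells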
[6] = system: full-length human AR and the receptor interacting domain (RID) of SRC1; set-up: method as in U.S. EPA, 2002b; settings: cited from earlier work
[7] = system: human AR (LBD and AF2 domains) and the RID of human SRC2; set-up: method as in U.S. EPA, 2002b; settings: activity call, agonist mode, 2 h; invitroDBv3.4 ref U.S. EPA, 2002b; cited from earlier work
AR2 cells (HepG2-AR2) [8] = system: AR2 cells (HepG2-AR2)
Method: as §1

human AR [9] = target: T1, human AR; experiment: AR2 assay, antagonist mode, retrofitted with human CYP metabolism by mRNA transfection (biogroups no RNA, Bgal, ten CYPs)
human AR [10] = target: T1, human AR; experiment: cell-based; set-up: species or system AR2 cells (HepG2-AR2); NanoLuc complementation AR homodimerization, agonist mode, luminescence gain, AC50 by Hill fit; settings: hill_ga
human AR [11] = target: T1, human AR
human AR [12] = target: T1, human AR; experiment: cell-based
[13] = spid AR_antagonist, sheet antagonist_fits
[14] = spid AR_antagonist, sheet antagonist_fits, 0 where win_model is Constant
[15] = sheet agonist_fits, Hill model top (efficacy), 0 given where win_model is Constant
[16] = sheet agonist_fits, maximum median response
[17] = sheet agonist_fits, winning concentration-response model (Constant, Hill, Gain-Loss)

Structure (SMILES) | AC50 (human AR [1]; spid=Bgal) | AC50 (human AR [1]; spid=No_RNA) | Agonist reference (AR) | Antagonist reference (AR) | Agonist reference (AR; Supplementary Table S1) | max_med (maximum median response) (AR2 cells (HepG2-AR2) [2]) | hill_tp (Hill model top) (AR2 cells (HepG2-AR2) [2]) | win_model (winning concentration-response model) (human AR [3]; [13]) | hill_gw (Hill model slope) (human AR [3]; [14]) | hill_tp (human AR [5]; [15]) | max_med (human AR [5]; [16]) | win_model (human AR [5]; [17]) | UPitt agonist [7] | hill_tp (Hill model top) (human AR [3]) | max_med (maximum median response) (human AR [3]) | hill_gw (human AR [5]) | hill_tp (human AR [5]) | max_med (human AR [5]) | win_model (human AR [5]) | also measured
CC1(C)[C@H](C(=O)O[C@H](C#N)c2cccc(Oc3ccccc3)c2)[C@@H]1C=C(Br)Br [Deltamethrin] | 12300 nM | 12800 nM | Inactive | Inactive | Inactive | 34.81 | 34.1073 | Hill | 2.614 | 0 | 0.0322 | Constant | 0 |  |  |  |  |  |  | Antagonist reference (AR; Supplementary Table S1): Inactive; AR2 antagonist (human AR [3]; activity call, antagonist mode, 18 h): 0; max_med (maximum median response) (human AR [3]; [13]): 65.39; hill_tp (Hill model top) (human AR [3]; [14]): 65.8008; UPitt antagonist ([4]; activity call, antagonist mode, 2 h, invitroDBv3.4 ref U.S. EPA, 2002b): 0; AR2 agonist (human AR [5]; activity call, agonist mode, 18 h): 0; OT 8 hr ([6]; activity call, 8 h, single protocol detects agonists and antagonists, invitroDBv3.4 ref U.S. EPA, 2002b): 0; OT 16 hr ([6]; activity call, 16 h, single protocol detects agonists and antagonists, invitroDBv3.4 ref U.S. EPA, 2002b): 0
C[C@]12CC[C@H]3C(=CCc4cc(O)ccc43)[C@@H]1CCC2=O [Equilin] | 487 nM | 861 nM |  |  |  |  |  | Hill | 1.131 | 3.175 | 3.181 | Hill |  | 92.4898 | 92.3262 |  |  |  |  | hill_tp (Hill model top) (AR2 cells (HepG2-AR2) [8]): 7.023; max_med (maximum median response) (AR2 cells (HepG2-AR2) [8]; spid Viability, sheet antagonist_fits): 12.8285; effect of CYP metabolism on AR antagonist activity (human AR [9]; CYP2C19 biogroup): reduced the potency; AC50 (human AR [10]; spid=Bgal, agonist mode, 18 h, no CYP expressed): 2140 nM; AC50 (human AR [10]; spid=No_RNA, agonist mode, 18 h, no CYP expressed): 2290 nM; hill_gw (human AR [5]; sheet agonist_fits, Hill model gain slope (Hill coefficient), 0 given where win_model is Constant): 1.401
C[C@]1(O)CC[C@H]2[C@@H]3CCC4=CC(=O)CCC4=C3C=C[C@@]21C [R1881, (17b)-17-hydroxy-17-methyl-estra-4,9,11-trien-3-one] |  |  |  |  |  |  |  |  |  |  |  |  |  |  |  | 1.162 | 6.231 | 6.236 | Hill | effect of CYP metabolism on the AR2 assay controls (human AR [11]): unimpacted by CYP metabolism; Emax (human AR [5]; read-out: maximal response): > 95%
CCC(=O)O[C@H]1CC[C@H]2[C@@H]3CCC4=CC(=O)CC[C@]4(C)[C@H]3CC[C@]12C [Testosterone propionate] |  |  | Strong | Inactive | Strong | 32.5936 | 43.3025 |  |  |  |  |  | 0 | 100.853 | 102.627 | 0.9765 | 2.087 | 2.0998 | Gain-Loss | AC50 (human AR [12]): 169 nM and 529 nM and 333 nM and 440 nM and 380 nM; change of AC50 value (human AR [9]; median across all biogroups versus CYP2C8, CYP2C9, CYP2C19, CYP3A4): more than 2 fold; AR2 antagonist (human AR [3]): 1; hill_gw (Hill model slope) (human AR [3]): 1.115; win_model (winning concentration-response model) (human AR [3]): Hill; UPitt antagonist [4]: 0; AC50 (human AR [10]): 234 nM; AR2 agonist (human AR [5]): 1; OT 8 hr [6]: 1; OT 16 hr [6]: 1
